Test system: HT1080 cells
Assay: Clonogenic survival / colony formation assay, HT1080
Type: cell-based, human
Details: 2.5 μM
Procedure: Several of the candidate irestatins were tested in a hypoxia clonogenic survival assay. […] HT1080 fibrosarcoma cells stably were treated with 1 uM of the indicated irestatin or left untreated, and incubated in hypoxia (0.01% oxygen) for 48 hrs at 37° C. Cells were harvested and counted, and allowed to form colonies under normal oxygen tension. Survival rate is expressed as the fraction of colonies formed divided by the total number of cells seeded for each condition. For all experiments, cells were plated in triplicate, and all experiments were repeated at least three times. These experiments were repeated using MiaPaCa2 cells in place of the HT 1080 fibrosarcoma cells.
For hypoxia survival assays, cells were grown in 60 mm dishes until reaching at 50-70% confluence and shifted to hypoxia (0.1% O2) for 48 hrs. Cells were trypsinized, counted using a hemocytometer, and replated in triplicate at 1,000-20,000 cells per plate in normal culture medium. After 10-12 days of growth under normal oxygen conditions, colonies were stained with 0.2% crystal violet in ethanol and counted. Survival values are expressed as the number of colonies divided by the total number of cells seeded for each condition, normalized to the plating efficiency under normal oxygen conditions. […]
A. Effect of irestatin 9389 on PERK and ATF6 pathways. […] D. Quantification of clonogenic survival assay. […]

## Cc1csc(NC(=O)CSc2nc3c(c(C(F)(F)F)c2C#N)CCC3)n1 [Compound 9389]
Hypoxia 48 hours
  colony formation after hypoxia: strongly inhibited colony formation
Normal oxygen conditions
  survival of HT1080 cells under normal oxygen: negligible effect

From patent US20090291857A1, “METHODS TO IDENTIFY INHIBITORS OF THE UNFOLDED PROTEIN RESPONSE” (THE BOARD OF TRUSTEES OF THE LELAND STANFORD JUNIOR …, priority 2006, published 2009)
